Measurements reported in publication PMC9814205, “Targeting undruggable carbohydrate recognition sites through focused fragment library design” (Communications Chemistry, 2022).
Entries after “also recorded” stand apart in the source; their conditions may differ.

What was measured:
5FW LecA (PA-IL) = target: T1, 5FW LecA (PA-IL) (Pseudomonas aeruginosa, UniProt Q05097); assay: PrOF NMR with 5-fluorotryptophan-labeled LecA; format: binding
T1 construct: made in house
Experimental: PrOF NMR was performed as reported previously. Briefly, 150 µM 5FW LecA was recorded alone and in the presence of DMSO or 2–4 mM compounds in TBS/Ca^2+ buffer. The difference in chemical shift perturbations of W42 in 5FW LecA free vs bound forms was followed to determine Kd values of compounds. The Kd values were calculated according to the one-site-binding model in Origin(Pro) 2020b (OriginLab Corp., USA) from two or three independent titrations. Ligand efficiency values were calculated according to Eq. (1) for a temperature of 310 K.

Raji cells = assay: Cytotoxicity observed in cellFy; format: cell-based; settings: at low concentrations; up to 10 mM
Experimental: (§1) The cellFy experiments using Langerin^+ and DC-SIGN^+ Raji cell lines were performed as described before. Briefly, 50k cells were plated in a 96-well plate (clear, round bottom; Greiner Bio-One and mixed with varying concentrations of malonates 58, D-mannose and 0.025 mg mL^−1 FITC-conjugated dextran (500 kDa, Sigma Aldrich) in a final volume of 50 µL following incubation for 30 min on ice. After centrifugation at 500 g for 3 min at 4 °C, the supernatant was discarded. After washing cells were treated with 50 µL 4 % paraformaldehyde (Roti-Histofix, Carl Roth) for 20 min on ice and resuspended in 100 µL fresh culture medium. The fluorescence of cells was measured by flow cytometry (MACSQuant Analyzer 16). Data was analyzed in FlowJo.

DC-SIGN^+ Raji cells = target: T2, DC-SIGN^+ Raji cells (Homo sapiens, UniProt Q9NNX6); assay: cellFy cell-based assay, FITC-dextran binding by flow cytometry; settings: D-mannose positive control
T2 construct: expressed in transfected cells; host or cells: Raji cells (DC-SIGN+)
T2 sequence (Q9NNX6 1-404): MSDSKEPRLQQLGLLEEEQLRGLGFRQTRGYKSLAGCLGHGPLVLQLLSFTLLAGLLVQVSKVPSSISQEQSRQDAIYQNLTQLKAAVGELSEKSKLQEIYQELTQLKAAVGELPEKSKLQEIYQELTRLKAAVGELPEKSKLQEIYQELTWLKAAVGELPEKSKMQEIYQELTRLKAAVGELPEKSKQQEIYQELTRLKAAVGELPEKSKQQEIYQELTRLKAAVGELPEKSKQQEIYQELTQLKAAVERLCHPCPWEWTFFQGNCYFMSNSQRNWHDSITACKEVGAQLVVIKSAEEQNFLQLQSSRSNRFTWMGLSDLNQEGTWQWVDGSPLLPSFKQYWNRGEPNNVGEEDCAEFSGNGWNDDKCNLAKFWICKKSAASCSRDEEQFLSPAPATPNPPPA
Experimental: as §1

LecB (PA-IIL) = target: T3, LecB (PA-IIL) (Pseudomonas aeruginosa, UniProt Q9HYN5); assay: 1H-15N TROSY NMR with 15N LecB; format: binding
T3 construct: made in house
Experimental: The ^1H-^15N TROSY pulse sequence trosyf3gpphsi19 with 128 increments and 32 scans per increment was applied for 0.15 mM ^15N LecA and 0.07 mM LecB in HBS/Ca^2+ buffer (20 mM HEPES pH 7.4, 150 mM NaCl, 10 mM CaCl2, 10% D2O and 100 µM sodium trimethylsilylpropanesulfonate (DSS) as internal reference) at 310 K. The ^1H-^15N HSQC pulse sequence hsqcf3gpph19 with 128 increments and 8 scans per increment was applied for 0.1 mM ^15N DC-SIGN and Langerin CRD in HBS/Ca^2+ buffer at 298 K. For screening of 650 non-fluorinated fragments of the general library against ^15N LecA, a mix of 10 compounds at 1 mM each was combined with 0.15 mM ^15N LecA in HBS/Ca^2+ buffer (20 mM HEPES pH 7.4, 150 mM NaCl, 10 mM CaCl2, 10% D2O and 100 µM sodium trimethylsilylpropanesulfonate (DSS) as internal reference, whereas the fragments with the MBP scaffolds were validated separately at 1 mM. Similarly, 9 nonfluorinated fragments from the MBP library were screened against ^15N-labeled DC-SIGN, LecA and LecB. To validate the fragment binding to proteins, we recorded ^1H-^15N HSQC and TROSY NMR of proteins in the presence of DMSO as negative control and 2 mM fragments in HBS/Ca^2+ buffer. Natural ligands were used as positive controls at 1 mM MeGal, MeFuc and 30 mM D-mannose to LecA/LecB and DC-SIGN CRD/Langerin CRD, respectively. Titration experiments with ^15N-labeled DC-SIGN CRD or LecB were recorded in HBS/Ca^2+ buffer with 30 mM CaCl2 and 0.25 to 4–8 mM malonic acid derivatives. The Kd values were calculated according to the one-site-binding model in Origin(Pro) 2020b (OriginLab Corp., USA). […]
All data were processed with NMRpipe[65] and analyzed with CcpNmr analysis. […] The changes in chemical shift perturbations (CSPs) were calculated according to Eq. (2):2 △δ=1/2△δH2+α△δN^2 in which δ is the difference in chemical shift (in ppm) and α is an empirical weighting factor of 0.14 for all amino acid backbone resonances. […]

DC-SIGN CRD (CD209) = target: T4, DC-SIGN CRD (CD209) (Homo sapiens, UniProt Q9NNX6); assay: 1H-15N HSQC NMR with 15N DC-SIGN CRD; format: binding
T4 construct: the carbohydrate recognition domain (CRD) of DC-SIGN in ^1H-^15N HSQC/TROSY NMR experiments; made in house
T4 sequence (Q9NNX6 263-378 limits assumed): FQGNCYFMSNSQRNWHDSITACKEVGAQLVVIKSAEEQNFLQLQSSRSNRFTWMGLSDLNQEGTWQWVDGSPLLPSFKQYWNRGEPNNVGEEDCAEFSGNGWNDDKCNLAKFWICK
Experimental: The ^1H-^15N TROSY pulse sequence trosyf3gpphsi19 with 128 increments and 32 scans per increment was applied for 0.15 mM ^15N LecA and 0.07 mM LecB in HBS/Ca^2+ buffer (20 mM HEPES pH 7.4, 150 mM NaCl, 10 mM CaCl2, 10% D2O and 100 µM sodium trimethylsilylpropanesulfonate (DSS) as internal reference) at 310 K. The ^1H-^15N HSQC pulse sequence hsqcf3gpph19 with 128 increments and 8 scans per increment was applied for 0.1 mM ^15N DC-SIGN and Langerin CRD in HBS/Ca^2+ buffer at 298 K. For screening of 650 non-fluorinated fragments of the general library against ^15N LecA, a mix of 10 compounds at 1 mM each was combined with 0.15 mM ^15N LecA in HBS/Ca^2+ buffer (20 mM HEPES pH 7.4, 150 mM NaCl, 10 mM CaCl2, 10% D2O and 100 µM sodium trimethylsilylpropanesulfonate (DSS) as internal reference, whereas the fragments with the MBP scaffolds were validated separately at 1 mM. Similarly, 9 nonfluorinated fragments from the MBP library were screened against ^15N-labeled DC-SIGN, LecA and LecB. To validate the fragment binding to proteins, we recorded ^1H-^15N HSQC and TROSY NMR of proteins in the presence of DMSO as negative control and 2 mM fragments in HBS/Ca^2+ buffer. Natural ligands were used as positive controls at 1 mM MeGal, MeFuc and 30 mM D-mannose to LecA/LecB and DC-SIGN CRD/Langerin CRD, respectively. Titration experiments with ^15N-labeled DC-SIGN CRD or LecB were recorded in HBS/Ca^2+ buffer with 30 mM CaCl2 and 0.25 to 4–8 mM malonic acid derivatives. The Kd values were calculated according to the one-site-binding model in Origin(Pro) 2020b (OriginLab Corp., USA). Ligand efficiency calculations were done according to Eq. (1) for a temperature of 298 K and 310 K for DC-SIGN CRD and LecB, respectively.1 LE=RTlnKd/HA, with the temperature T [K], the gas constant R [kcal mol^−1 K^−1], and the number of non-hydrogen atoms HA[56].
All data were processed with NMRpipe[65] and analyzed with CcpNmr analysis. For data analysis, the protein fingerprint of ^15N DC-SIGN (Table S7) or Langerin CRD was assigned as reported previously. The ^1H-^15N TROSY resonances of ^15N LecA and ^15N LecB were indexed with IDs due to a lack of protein backbone resonance assignment (Tables S8-S9). Next, resonance IDs from protein spectra were transferred to the spectra obtained in the presence of compounds in order to compare the changes in chemical shift perturbations for the fast exchange peaks. The changes in chemical shift perturbations (CSPs) were calculated according to Eq. (2):2 △δ=1/2△δH2+α△δN^2 in which δ is the difference in chemical shift (in ppm) and α is an empirical weighting factor of 0.14 for all amino acid backbone resonances. The threshold value was set based on three independent measurements of reference spectra to 0.01 ppm for LecA, LecB, DC-SIGN CRD and Langerin CRD.

Langerin and DC-SIGN = settings: cited from earlier work
DC-SIGN = settings: stated in SI text, method and reference not given; cited from earlier work
LecA [1] = target: T5, LecA (Pseudomonas aeruginosa, UniProt Q05097); settings: carbohydrate ligand; cited from earlier work
T5 construct: made in house

LecA [2] = target: T5, LecA; settings: positive control in FP assay, unit inferred; cited from earlier work

T1 sequence (Q05097 2-122): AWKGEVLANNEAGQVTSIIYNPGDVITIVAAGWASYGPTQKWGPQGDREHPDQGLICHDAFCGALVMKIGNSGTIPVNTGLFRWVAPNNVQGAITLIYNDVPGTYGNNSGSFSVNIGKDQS
T3 sequence (Q9HYN5 entry or part of it): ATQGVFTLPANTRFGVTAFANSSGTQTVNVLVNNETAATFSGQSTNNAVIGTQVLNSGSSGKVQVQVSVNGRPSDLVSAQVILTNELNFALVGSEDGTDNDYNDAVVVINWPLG
T5 sequence (Q05097 whole entry): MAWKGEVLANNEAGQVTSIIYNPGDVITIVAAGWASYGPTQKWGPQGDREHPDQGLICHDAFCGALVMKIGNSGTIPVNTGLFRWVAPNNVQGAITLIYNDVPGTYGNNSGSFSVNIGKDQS

O=C(O)C(C(=O)O)C1CCC(F)(F)C1 (centres unmarked) [compound 58]
binding to 5FW LecA (perturbation of W42) in PrOF NMR (5FW LecA (PA-IL); 2 mM compound): perturbed W42 | W2 [ppm] (5FW LecA (PA-IL); 19F resonance of 0.15 mM 5FW LecA with 2 mM compound, DMSO 121.43): 121.47 ppm | W33 [ppm] (5FW LecA (PA-IL); 19F resonance of 0.15 mM 5FW LecA with 2 mM compound, DMSO 121.67): 121.77 ppm | W84 [ppm] (5FW LecA (PA-IL); 19F resonance of 0.15 mM 5FW LecA with 2 mM compound, DMSO 123.50): 123.53 ppm | cytotoxicity (Raji cells): negligible cytotoxicity; also recorded: low cytotoxicity | inhibition of FITC-dextran binding / binding to DC-SIGN^+ cells (DC-SIGN^+ Raji cells): inhibited FITC-dextran binding to DC-SIGN similarly to D-mannose; also recorded: specifically bound to DC-SIGN^+ cells | Kd (LecB (PA-IIL)): 1.2 ± 0.4 mM | LE (LecB (PA-IIL); ligand efficiency calculated from Kd for LecB, 310 K): 0.29 kcal mol^−1 HA^−1 | Kd (DC-SIGN CRD (CD209); 15N DC-SIGN CRD, titration, one-site binding model, 30 mM CaCl2): 1.2 ± 0.5 mM | LE (DC-SIGN CRD (CD209); ligand efficiency calculated from Kd for DC-SIGN CRD, 298 K): 0.28 kcal mol^−1 HA^−1

OC[C@H]1OC(O)[C@@H](O)[C@@H](O)[C@@H]1O (stereo partly drawn) [D-mannose]
Kd (Langerin and DC-SIGN): 3.5 to 6.1 mM | Kd (DC-SIGN): 3 mM

OC[C@H]1O[C@H](O)[C@H](O)[C@@H](O)[C@H]1O [α-D-galactose]
Kd (LecA [1]): 50 µM

CC(=O)N[C@H]1C(O)O[C@H](CO)[C@H](O)[C@@H]1O (some centres unmarked) [GalNAc]
IC50 (LecA [2]): 1.23 ± 0.2 mM
